Source: PMC7545187, “Endocrine disruption of vitamin D activity by perfluoro-octanoic acid (PFOA)” (Scientific Reports, 2020)

Target: T1, Vitamin D receptor (VDR) (Homo sapiens, UniProt P11473)
T1 sequence (P11473 1-427): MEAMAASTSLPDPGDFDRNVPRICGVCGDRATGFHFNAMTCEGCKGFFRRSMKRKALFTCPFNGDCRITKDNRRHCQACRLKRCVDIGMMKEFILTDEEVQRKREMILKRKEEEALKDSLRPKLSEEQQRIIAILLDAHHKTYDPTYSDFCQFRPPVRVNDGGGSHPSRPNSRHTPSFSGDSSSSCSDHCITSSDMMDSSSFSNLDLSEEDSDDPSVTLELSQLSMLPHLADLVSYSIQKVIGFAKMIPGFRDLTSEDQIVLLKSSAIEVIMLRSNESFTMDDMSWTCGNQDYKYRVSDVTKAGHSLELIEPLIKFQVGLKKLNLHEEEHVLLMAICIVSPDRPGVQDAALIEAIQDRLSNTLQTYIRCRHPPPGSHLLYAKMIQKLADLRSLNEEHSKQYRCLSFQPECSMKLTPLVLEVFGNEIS
Experiment: SPR competition: PFOA ([…]) with […](OH)D over immobilized VDR; […] decrease, no Kd for PFOA
Assay type: binding

## O=C(O)C(F)(F)C(F)(F)C(F)(F)C(F)(F)C(F)(F)C(F)(F)C(F)(F)F [PFOA, perfluorooctanoic acid]
  % decrease: 10 % decrease
